In patent publication US20120225118A1, “COMPOSITIONS FOR DELIVERY OF INSOLUBLE AGENTS” (Latitude Pharmaceuticals Incorporated, priority 2009, published 2012):
Converted amounts (≈) assume the structure as drawn. Like-named read-outs stand apart in the source and are kept apart here.

Columns and labels:
[1] = 25° C., cited from earlier work
[2] = Solubility in aqueous 0.2% SDS; assay type: physicochemical; conditions: 37 °C, aqueous with cosolvent or surfactant or cyclodextrin, thermodynamic from solid
Description: About 5.5 mg itraconazole or an amount of the preparations obtained according to Example 3 containing 5.5 mg itraconazole was placed in 500 mL aqueous solution of 0.2% SDS. The mixture was stirred at 37° C. for 24 hours. About 5 mL of the solution was taken and filtered through a 0.45 μm filter. The filtrate was analyzed by HPLC for concentration of itraconazole.

## CC(=O)Oc1ccccc1C(=O)O [aspirin]
[1]; ethanol
  volume of solvent required to dissolve 1 gram: 5 mL
[1]; water
  volume of solvent required to dissolve 1 gram: 300 mL

## CCC(C)n1ncn(-c2ccc(N3CCN(c4ccc(OCC5COC(Cn6cncn6)(c6ccc(Cl)cc6Cl)O5)cc4)CC3)cc2)c1=O (stereo not drawn) [itraconazole]
[2]
  solubility at 24 h: 6.44 ± 0.08 µg/mL (≈ 9.13 µM)
